Results published in patent US9540299B2, “MTOR-independent activator of TFEB for autophagy enhancement and uses thereof” (Hong Kong Baptist University, priority 2015, dated 2017).

What was measured:
[1] = system: A53T mutant SNCA; test: Degradation of HA-tagged A53T mutant SNCA in inducible PC12 cells; type: cell-based; settings: for degradation of SNCA A53T: Dox 24 h then 48 h, curcumin 10 μM, analogs 1 μM
Procedure: (§1) Expression and intensity of HA-tagged wild-type (WT) or A53T mutant SNCA in inducible PC12 cells are treated with doxycycline (Dox, 2 μg/ml) for 24 h, and then treated with curcumin (10 μM), A2, B3 and C1 (1 μM) for another 48 h (A, C) in the presence or absence of chloroquine (CQ, 20 μM) and wortmannin (WM, 1 μM) (B, D). The expression of HA-SNCA is determined by western blots and quantified from three independent experiments. Corynoxine B (Cory B, 25 μM) is used as a positive control. Relative intensity is normalized to that of ACTB/β-actin. Data are presented as the mean±SD from three independent experiments. *p<0.05 vs. the control (0.1% DMSO).
(§2) N2a, Hela and Hela cells stably expressing 3×-Flag-TFEB are cultured in DMEM supplemented with 10% FBS. SH-SY5Y cells are cultured in DMEM/F12 supplemented with 10% FBS. For drug treatment, the full medium is replaced by fresh Opti-MEM I and then the compounds (in 0.1% DMSO) are added to the cells and incubated for 12 h. Inducible PC12 cells overexpressing SNCA (WT and A53T) (a kind gift from Prof. David C. Rubinsztein at Cambridge University) are grown in DMEM supplemented with 10% horse serum, 5% FBS, 50 μg/ml G418, and 150 μg/ml hygromycin B at 37° C., 10% CO2. Cells are treated with 2 μg/ml doxycycline (Dox) for 24 h to induce SNCA expression. The full medium is changed to Opti-MEM I containing the testing compounds for another 48 h.
(§3) Cells are lysed on ice in 1× Lysis Buffer (9803, Life Technologies) with complete protease inhibitor mixture (04693124001, Roche Applied Science). Animal tissues are homogenized in nine volumes of ice-cold PBS supplemented with protease inhibitors. Cytosolic and nuclear fractions are isolated using protocols similar to those described previously. Anti-Flag or TFEB antibody is added to the whole cell lysates and Dynabeads® Protein G (10003D, Life Technologies) is used for immunoprecipitation. Proteins are separated by 10-15% SDS-PAGE, transferred, and blotted with the antibodies described. The blots are then incubated with secondary antibodies or the Clean-Blot IP Detection Reagent (21230, Thermo Scientific) at room temperature for 1 h. The protein signals are detected by ECL kit (32106, Pierce) and quantified using ImageJ software.
(§4) Inducible PC12 cells are treated with doxycycline (Dox, 2 μg/ml) for 24 h to induce the expression of HA-tagged wild-type (WT) or A53T mutant SNCA, and then treated with curcumin (10 μM), A2, B3 and C1 (1 μM) for another 48 h (FIGS. 8 A, C) in the presence or absence of chloroquine (CQ, 20 μM) and wortmannin (WM, 1 μM) (FIGS. 8 B, D). The expression of HA-SNCA is determined by western blots and quantified from three independent experiments. Corynoxine B (Cory B, 25 μM) is used as a positive control. […] Corynoxine B (Cory B) is used as a positive control.

[2] = system: wild-type (WT) SNCA; test: Degradation of HA-tagged wild-type SNCA in inducible PC12 cells; type: cell-based; settings: for degradation of SNCA WT: Dox 24 h then 48 h, curcumin 10 μM, analogs 1 μM
Procedure: as §1, §2, §3, §4

[3] = biological target: T1, purified His-TFEB (Homo sapiens, UniProt P19484); test: Binding of solid-phase compound to purified recombinant His-TFEB; settings: 17 μmol compound powder, RIPA buffer, 2 hours at 4° C.; 55 kDa band by TFEB antibody
T1 construct: purchased ORIGENE TP760282
T1 sequence (P19484 1-476): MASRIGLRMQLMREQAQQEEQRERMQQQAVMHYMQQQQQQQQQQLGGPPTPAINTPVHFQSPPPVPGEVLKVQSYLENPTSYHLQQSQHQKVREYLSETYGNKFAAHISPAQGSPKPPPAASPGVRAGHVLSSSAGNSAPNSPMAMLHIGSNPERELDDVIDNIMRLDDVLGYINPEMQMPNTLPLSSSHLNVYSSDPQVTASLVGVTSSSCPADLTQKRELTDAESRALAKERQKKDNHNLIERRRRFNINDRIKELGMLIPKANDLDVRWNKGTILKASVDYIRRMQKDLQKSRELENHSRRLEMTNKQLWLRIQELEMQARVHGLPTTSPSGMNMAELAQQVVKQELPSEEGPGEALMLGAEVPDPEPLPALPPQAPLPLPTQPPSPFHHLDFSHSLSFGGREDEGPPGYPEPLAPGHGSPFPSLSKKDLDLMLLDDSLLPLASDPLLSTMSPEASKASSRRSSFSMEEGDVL
Procedure: Hela cells stably expressing 3×Flag-TFEB are treated with C1 (1 μM) for 12 h. Endogenous MTOR (A) and YWHA (B) are co-immunoprecipitated with Flag-TFEB. The levels of immunoprecipitated MTOR and YWHA are normalized to their corresponding levels in whole cell lysates (WCL). […] However, when MTOR and YWHA coimmunoprecipitated with Flag-TFEB after C1 treatment, interaction of MTOR and YWHA is decreased as compared with control. […] Furthermore, purified His-TFEB (TP760282, ORIGENE) is diluted in RIPA buffer and 17 μmol curcumin (6.3 mg) or C1 (5 mg) powder is added into TFEB solution and incubated for 2 hours at 4° C. with shaking. The supernatant is discarded after centrifuge. The pellet (compounds and the bound protein) is washes 4 times in RIPA buffer and the bound proteins are eluted by adding 2% SDS sampling buffer. The bound proteins are separated on 10% SDS—polyacrylamide gel and visualized by TFEB antibody (Proteintech).

| SMILES | degradation of SNCA A53T ([1]; inducible PC12 cells) | degradation of SNCA WT ([2]; inducible PC12 cells) | direct binding to purified TFEB [3] | activity in degrading SNCA in presence of wortmannin (WM) or CQ ([1]; SNCA A53T, WM 1 μM, CQ 20 μM, 1 μM compound) | SNCA clearance, comparison among compounds ([1]; inducible PC12 cells, SNCA A53T) | activity in degrading SNCA in presence of wortmannin (WM) or CQ ([2]; SNCA WT, WM 1 μM, CQ 20 μM, 1 μM compound) | SNCA clearance, comparison among compounds ([2]; inducible PC12 cells, SNCA WT) |
| --- | --- | --- | --- | --- | --- | --- | --- |
| O=C(/C=C/c1cccc(C(F)(F)F)c1)/C=C/c1cccc(C(F)(F)F)c1 [A2, 1,5-bis(3-(trifluoromethyl)phenyl)penta-1,4-dien-3-one] | significantly degrade | significantly degrade |  |  |  |  |  |
| O=C(/C=C/c1ccc(O)cc1)/C=C/c1ccc(O)cc1 [B3, 1,5-bis(4-hydroxyphenyl)penta-1,4-dien-3-one] | significantly degrade | significantly degrade |  |  |  |  |  |
| COc1ccccc1/C=C/C(=O)/C=C/c1ccccc1OC [C1, 1,5-bis(2-methoxyphenyl)penta-1,4-dien-3-one] | significantly degrade | significantly degrade | can directly bind | significantly blocked | best effects | significantly blocked | best effects |
| COc1cc(/C=C/C(=O)CC(=O)/C=C/c2ccc(O)c(OC)c2)ccc1O [curcumin, Curcumin, reference compound] | promotes the degradation | no effect | not |  |  |  |  |
